# Laboratory results published in US20210045385A1, “PYRIDAZINONE-SUBSTITUTED KETOXIMES AS HERBICIDES” (FMC Corporation, priority 2018, published 2021).
# Key:
# Format in all cases: in vivo
# [1] = tested on: barnyardgrass (Echinochloa crus-galli); assay: Test C postemergence, visual plant response rating
# Outline: (§1)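 Visual injury on a 0 (no effect) to 100 (complete control) scale versus untreated controls, scored approximately 10 d after treatment under greenhouse conditions. Treatments used surfactant-containing non-phytotoxic solvent formulations, sprayed onto loam–sand soil preemergence or onto one- to two-leaf plants 2–10 cm tall postemergence.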
# [2] = tested on: blackgrass (Alopecurus myosuroides); assay: Test C postemergence, visual plant response rating
# Outline: as §1
# [3] = tested on: wheat (Triticum aestivum); assay: Test C postemergence, visual plant response rating
# Outline: as §1
# kochia (Bassia scoparia) [4] = assay: Test C postemergence, visual plant response rating
# Outline: as §1
# [5] = tested on: foxtail, giant (giant foxtail, Setaria faberi); assay: Test C postemergence, visual plant response rating
# Outline: as §1
# [6] = tested on: Italian ryegrass (Lolium mutiflorum); assay: Test C postemergence, visual plant response rating
# Outline: as §1
# [7] = tested on: pigweed (Amaranthus retroflexus); assay: Test C postemergence, visual plant response rating
# Outline: as §1
# [8] = tested on: galium (catchweed bedstraw, Galium aparine); assay: Test C postemergence, visual plant response rating
# Outline: as §1
# [9] = tested on: ragweed (common ragweed, Ambrosia artemisiifolia); assay: Test C postemergence, visual plant response rating
# Outline: as §1
# corn (Zea mays) = assay: Test C postemergence, visual plant response rating
# Outline: as §1
# [10] = tested on: barnyardgrass (Echinochloa crus-galli); assay: Test C preemergence, visual plant response rating; details: Test C, 0 is no effect, 100 is complete control
# Outline: as §1
# kochia (Bassia scoparia) [11] = assay: Test C preemergence, visual plant response rating; details: Test C, 0 is no effect, 100 is complete control
# Outline: as §1
# [12] = tested on: foxtail, giant (giant foxtail, Setaria faberi); assay: Test C preemergence, visual plant response rating; details: Test C, 0 is no effect, 100 is complete control
# Outline: as §1
# [13] = tested on: Italian ryegrass (Lolium mutiflorum); assay: Test C preemergence, visual plant response rating; details: Test C, 0 is no effect, 100 is complete control
# Outline: as §1
# [14] = tested on: pigweed (Amaranthus retroflexus); assay: Test C preemergence, visual plant response rating; details: Test C, 0 is no effect, 100 is complete control
# Outline: as §1
# [15] = tested on: ragweed (common ragweed, Ambrosia artemisiifolia); assay: Test C preemergence, visual plant response rating; details: Test C, 0 is no effect, 100 is complete control
# Outline: as §1
# rice (Oryza sativa) = assay: Test D flooded paddy test, visual plant response rating; details: 250 g ai/ha, scale 0 to 100 (0 no effect, 100 complete control), 13 to 15 d
# Outline: (§2)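 Visual injury scores, 0 (no effect) to 100 (complete control), were assigned after 13 to 15 d in the greenhouse by comparison with controls. Test compounds had been added to paddy water covering soil by 3 cm at the 2-leaf stage.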
# [16] = tested on: duck salad (Heteranthera limosa); assay: as above; details: 250 g ai/ha, scale 0 to 100 (0 no effect, 100 complete control), 13 to 15 d
# Outline: as §2
# [17] = tested on: barnyardgrass (Echinochloa crus-galli); assay: as above; details: 250 g ai/ha, scale 0 to 100 (0 no effect, 100 complete control), 13 to 15 d
# Outline: as §2
# [18] = tested on: sedge umbrella (small-flower umbrella sedge, Cyperus difformis); assay: as above; details: 250 g ai/ha, scale 0 to 100 (0 no effect, 100 complete control), 13 to 15 d
# Outline: as §2
# [19] = Test C, postemergence, 125 g ai/ha
Compound,"Barnyardgrass plant response rating (0 to 100 scale) ([1]; Postemergence, 31 g ai/ha)","Barnyardgrass plant response rating (0 to 100 scale) [1, 19]","Blackgrass plant response rating (0 to 100 scale) ([2]; Postemergence, 31 g ai/ha)","Blackgrass plant response rating (0 to 100 scale) [2, 19]","Wheat plant response rating (0 to 100 scale) ([3]; Postemergence, 31 g ai/ha)","Wheat plant response rating (0 to 100 scale) [3, 19]","Kochia plant response rating (0 to 100 scale) (kochia (Bassia scoparia) [4]; Postemergence, 31 g ai/ha)",Kochia plant response rating (0 to 100 scale) (kochia (Bassia scoparia) [4]; [19]),"Foxtail, Giant plant response rating (0 to 100 scale) ([5]; Postemergence, 31 g ai/ha)","Foxtail, Giant plant response rating (0 to 100 scale) [5, 19]","Ryegrass, Italian plant response rating (0 to 100 scale) ([6]; Postemergence, 31 g ai/ha)","Ryegrass, Italian plant response rating (0 to 100 scale) [6, 19]","Pigweed plant response rating (0 to 100 scale) ([7]; Postemergence, 31 g ai/ha)","Pigweed plant response rating (0 to 100 scale) [7, 19]","Galium plant response rating (0 to 100 scale) ([8]; Postemergence, 31 g ai/ha)","Galium plant response rating (0 to 100 scale) [8, 19]","Ragweed plant response rating (0 to 100 scale) ([9]; Postemergence, 31 g ai/ha)","Ragweed plant response rating (0 to 100 scale) [9, 19]","Corn plant response rating (0 to 100 scale) (corn (Zea mays); Postemergence, 31 g ai/ha)",Corn plant response rating (0 to 100 scale) (corn (Zea mays); [19]),other results
Cc1nn(C)c(=O)c(/C(=N/OCCO)c2cccc3cc(Cl)ccc23)c1O [Compound 240],0,20,0,10,0,0,0,0,0,0,0,0,70,80,20,50,0,0,0,0,"Barnyardgrass plant response rating (0 to 100 scale) ([10]; 31 g ai/ha): 0; Barnyardgrass plant response rating (0 to 100 scale) ([10]; 125 g ai/ha): 0; Kochia plant response rating (0 to 100 scale) (kochia (Bassia scoparia) [11]; 31 g ai/ha): 0; Kochia plant response rating (0 to 100 scale) (kochia (Bassia scoparia) [11]; 125 g ai/ha): 0; Foxtail, Giant plant response rating (0 to 100 scale) ([12]; 31 g ai/ha): 10; Foxtail, Giant plant response rating (0 to 100 scale) ([12]; 125 g ai/ha): 80; Ryegrass, Italian plant response rating (0 to 100 scale) ([13]; 31 g ai/ha): 0; Ryegrass, Italian plant response rating (0 to 100 scale) ([13]; 125 g ai/ha): 0; Pigweed plant response rating (0 to 100 scale) ([14]; 31 g ai/ha): 50; Pigweed plant response rating (0 to 100 scale) ([14]; 125 g ai/ha): 100; Ragweed plant response rating (0 to 100 scale) ([15]; 31 g ai/ha): 0; Ragweed plant response rating (0 to 100 scale) ([15]; 125 g ai/ha): 10; Plant response rating, Rice (Flood) (rice (Oryza sativa)): 0; Plant response rating, Ducksalad (Flood) [16]: 0; Plant response rating, Barnyardgrass (Flood) [17]: 15; Plant response rating, Sedge, Umbrella (Flood) [18]: 0"
Cc1nn(C)c(=O)c(/C(=N\OC(C)C)c2cccc3cc(Cl)ccc23)c1O [Compound 241],30,60,20,40,0,0,0,20,70,80,0,0,80,90,90,100,80,100,10,0,"Barnyardgrass plant response rating (0 to 100 scale) ([10]; 31 g ai/ha): 10; Barnyardgrass plant response rating (0 to 100 scale) ([10]; 125 g ai/ha): 60; Kochia plant response rating (0 to 100 scale) (kochia (Bassia scoparia) [11]; 31 g ai/ha): 0; Kochia plant response rating (0 to 100 scale) (kochia (Bassia scoparia) [11]; 125 g ai/ha): 0; Foxtail, Giant plant response rating (0 to 100 scale) ([12]; 31 g ai/ha): 80; Foxtail, Giant plant response rating (0 to 100 scale) ([12]; 125 g ai/ha): 90; Ryegrass, Italian plant response rating (0 to 100 scale) ([13]; 31 g ai/ha): 0; Ryegrass, Italian plant response rating (0 to 100 scale) ([13]; 125 g ai/ha): 0; Pigweed plant response rating (0 to 100 scale) ([14]; 31 g ai/ha): 90; Pigweed plant response rating (0 to 100 scale) ([14]; 125 g ai/ha): 100; Ragweed plant response rating (0 to 100 scale) ([15]; 31 g ai/ha): 40; Ragweed plant response rating (0 to 100 scale) ([15]; 125 g ai/ha): 10; Plant response rating, Rice (Flood) (rice (Oryza sativa)): 85; Plant response rating, Ducksalad (Flood) [16]: 85; Plant response rating, Barnyardgrass (Flood) [17]: 90; Plant response rating, Sedge, Umbrella (Flood) [18]: 95"
C#CCO/N=C(/c1c(O)c(C)nn(C)c1=O)c1cccc2cc(Cl)ccc12 [Compound 242],80,90,80,90,0,60,40,50,70,80,40,90,90,100,80,100,50,90,0,20,"Barnyardgrass plant response rating (0 to 100 scale) ([10]; 31 g ai/ha): 60; Barnyardgrass plant response rating (0 to 100 scale) ([10]; 125 g ai/ha): 90; Kochia plant response rating (0 to 100 scale) (kochia (Bassia scoparia) [11]; 31 g ai/ha): 30; Kochia plant response rating (0 to 100 scale) (kochia (Bassia scoparia) [11]; 125 g ai/ha): 50; Foxtail, Giant plant response rating (0 to 100 scale) ([12]; 31 g ai/ha): 80; Foxtail, Giant plant response rating (0 to 100 scale) ([12]; 125 g ai/ha): 100; Ryegrass, Italian plant response rating (0 to 100 scale) ([13]; 31 g ai/ha): 10; Ryegrass, Italian plant response rating (0 to 100 scale) ([13]; 125 g ai/ha): 90; Pigweed plant response rating (0 to 100 scale) ([14]; 31 g ai/ha): 100; Pigweed plant response rating (0 to 100 scale) ([14]; 125 g ai/ha): 100; Ragweed plant response rating (0 to 100 scale) ([15]; 31 g ai/ha): 80; Ragweed plant response rating (0 to 100 scale) ([15]; 125 g ai/ha): 90; Plant response rating, Rice (Flood) (rice (Oryza sativa)): 85; Plant response rating, Ducksalad (Flood) [16]: 98; Plant response rating, Barnyardgrass (Flood) [17]: 95; Plant response rating, Sedge, Umbrella (Flood) [18]: 100"
C=CCO/N=C(\c1c(O)c(C)nn(C)c1=O)c1cccc2cc(Cl)ccc12 [Compound 243],70,80,30,50,0,0,20,20,70,80,10,40,80,90,80,90,60,90,0,30,"Barnyardgrass plant response rating (0 to 100 scale) ([10]; 31 g ai/ha): 20; Barnyardgrass plant response rating (0 to 100 scale) ([10]; 125 g ai/ha): 80; Kochia plant response rating (0 to 100 scale) (kochia (Bassia scoparia) [11]; 31 g ai/ha): 0; Kochia plant response rating (0 to 100 scale) (kochia (Bassia scoparia) [11]; 125 g ai/ha): 0; Foxtail, Giant plant response rating (0 to 100 scale) ([12]; 31 g ai/ha): 80; Foxtail, Giant plant response rating (0 to 100 scale) ([12]; 125 g ai/ha): 100; Ryegrass, Italian plant response rating (0 to 100 scale) ([13]; 31 g ai/ha): 0; Ryegrass, Italian plant response rating (0 to 100 scale) ([13]; 125 g ai/ha): 20; Pigweed plant response rating (0 to 100 scale) ([14]; 31 g ai/ha): 70; Pigweed plant response rating (0 to 100 scale) ([14]; 125 g ai/ha): 100; Ragweed plant response rating (0 to 100 scale) ([15]; 31 g ai/ha): 30; Ragweed plant response rating (0 to 100 scale) ([15]; 125 g ai/ha): 80; Plant response rating, Rice (Flood) (rice (Oryza sativa)): 45; Plant response rating, Ducksalad (Flood) [16]: 80; Plant response rating, Barnyardgrass (Flood) [17]: 40; Plant response rating, Sedge, Umbrella (Flood) [18]: 100"
